Data taken from patent US6527759B1, “Ultrasound assembly for use with light activated drugs” (Ekos Corporation, priority 1995, dated 2003).

What was measured:
[1] = Relative efficiency of bile salts as co-solubilizers for SnEt2 in MCT oil, egg phospholipids and ethanol (Example 6); format: physicochemical; details: egg phospholipids, ethanol
Protocol: (§1) Several emulsions are prepared as described above. In 5 ml glass tubes, medium chain length oil known as MCT oil (Miglyol 801, Hüls America, Piscataway, N.J.) is combined with 10 mg/gm SnEt2 plus excipients as described above. Certain emulsions also included additional excipients in the following concentrations: ethanol at […]; egg phospholipids at 75 mg/gm oil; and sodium cholate at 10 mg/gm oil. After incubating for 30 minutes at 55° C., the tubes stand overnight at room temperature (19°-22° C.). The tubes arc centrifuged to remove bulk precipitates, and supernatants are filtered through 0.45 μm nylon membrane to remove any undissolved drug. Aliquots of filtrate are then diluted in chloroform:isopropyl alcohol (1:1) for spectrophotometric determination of drug concentration (absorbance at 662 nm). Reference standards are prepared with known concentrations of SnEt2 in the same solvent.
This example illustrates relative efficiencies of several bile salts. Mixtures of MCT oil, egg phospholipids, ethanol, and SnEt2 are incubated with different bile salts, all at 4.6 mM^1, under the same conditions described above. […] Cholic acid lacks solubilizing action in the oil.

[2] = Drug solubility in oil: SnEt2 in MCT oil with excipient combinations (Example 5); format: physicochemical; details: emulsion with excipients vs MCT oil alone
Protocol: as §1
The concentration of SnEt2 in each of the emulsions is illustrated in Table 2. As illustrated, the concentration of SnEt2 in the emulsion can be more than ten times the concentration in MCT oil alone.

In the case of CCOC(=O)C1=Cc2c3nc(cc4nc(cc5[n-]c(cc6[n-]c2c(C)c6CC)c(C)c5CC)C(C)=C4CC)[C@@H](C)[C@]13CC.[Cl-].[Cl-].[Sn] (racemic) [SnEt2, tin ethyl etiopurpurin], the “SnEt2 Concentration” value ([1]; bile compound: Cholic acid, 4.6 mM) is reported as 1.33 mg/gm oil, the “SnEt2 Concentration” value ([1]; bile compound: Na Tauracholate, 4.6 mM) is reported as 1.13 mg/gm oil and the “SnEt2 Concentration” value ([1]; bile compound: Na cholate, 4.6 mM) is reported as 3.70 mg/gm oil. The “SnEt2 Concentration” value ([1]; bile compound: Na deoxycholate, 4.6 mM) was 2.31 mg/gm oil, the “SnEt2 Concentration” value ([1]; bile compound: Na glycocholate, 4.6 mM) was 2.22 mg/gm oil and the “SnEt2 Concentration” value ([1]; bile compound: None) was 1.26 mg/gm oil. The “concentration of SnEt2 in the emulsion relative to the concentration in MCT oil alone” value [2] was “more than ten”.
